Structures can show the parent of a compound that is named as a salt. Where only a bound is given, the exact number is not on record here.

Test [1] has as its system tracheal specimens excised from guinea pigs (bronchial smooth muscle). In words: Inhibitory effect on KCl-induced contraction of tracheal specimens excised from guinea pigs. The arrangement: species or system guinea pig. The conditions noted are these: for Emax: Cavia porcellus, 20 mM KCl-induced contraction, maximum relaxation with 100 μM papaverine = 100%, 37 °C, 3 specimens, cumulative addition, read-out: Bronchial smooth muscle-relaxation ratio. An excerpt:
According to a method in which tracheal specimens excised from guinea pigs were used (Takagi and Ozawa, "Yakubutsugaku Jikken (Experiments in Pharmacology)", p.100-102, 1960, published by Nanzando, Japan; and Fujiwara and Shibata, "Yakurigaku Kiso Jikenho (Methods of Fundamental Experiments in Pharmacology)" p.131-134, 1982, published by Kyourin, Japan), the relaxing effect of benzothiazolesulfonamide derivatives of the present invention (compounds 1 to 10) on bronchial smooth muscle was evaluated. From male guinea pigs weighing 350 to 500 g (Hartley strain, Kuroda Junkei Dobutsu), tracheas were excised and each of the excised tracheal specimens was hung in a 20 ml Magnus tube filled with Krebs-Henseleit solution containing 3 μM indomethacin under isometric conditions (initial load: 1.5 g). The solution temperature was kept at 37 ° C. in an atmosphere containing 95% O2 and 5% CO2. […] On the other hand, each of the compounds of the present invention was dissolved in distilled water or physiological saline and, after the KCl-induced contraction became stable, the compound solution was cumulatively added into the Magnus tube. The relaxing effect of each of the compounds of the present invention on contracted tracheal specimens was evaluated and a dose-response curve was obtained. After the evaluation of the relaxing effect, 100 μM of papaverine was individually added into the Magnus tubes, to thereby obtain a maximum relaxation value. Taking the obtained maximum relaxation value as 100%, the relaxation ratio was calculated with respect to each of thee compounds of the present invention. The number of specimens tested for each compound was 3. As a comparative compound, 1- 2-(6-benzothiazolesulfonylamino)ethyl!-4- 3-(phenoxy)propyl!piperazine […] disclosed in International Patent Application Publication No. WO92/14712 was used. (2) Results of the calculations

In test [2] the target is T1, Myosin light chain kinase (MLCK) (Gallus gallus, UniProt P11799).
T1 construct: MLCK was isolated and purified by the method according to Walsh et al; from tissue
T1 sequence (P11799 935-1906): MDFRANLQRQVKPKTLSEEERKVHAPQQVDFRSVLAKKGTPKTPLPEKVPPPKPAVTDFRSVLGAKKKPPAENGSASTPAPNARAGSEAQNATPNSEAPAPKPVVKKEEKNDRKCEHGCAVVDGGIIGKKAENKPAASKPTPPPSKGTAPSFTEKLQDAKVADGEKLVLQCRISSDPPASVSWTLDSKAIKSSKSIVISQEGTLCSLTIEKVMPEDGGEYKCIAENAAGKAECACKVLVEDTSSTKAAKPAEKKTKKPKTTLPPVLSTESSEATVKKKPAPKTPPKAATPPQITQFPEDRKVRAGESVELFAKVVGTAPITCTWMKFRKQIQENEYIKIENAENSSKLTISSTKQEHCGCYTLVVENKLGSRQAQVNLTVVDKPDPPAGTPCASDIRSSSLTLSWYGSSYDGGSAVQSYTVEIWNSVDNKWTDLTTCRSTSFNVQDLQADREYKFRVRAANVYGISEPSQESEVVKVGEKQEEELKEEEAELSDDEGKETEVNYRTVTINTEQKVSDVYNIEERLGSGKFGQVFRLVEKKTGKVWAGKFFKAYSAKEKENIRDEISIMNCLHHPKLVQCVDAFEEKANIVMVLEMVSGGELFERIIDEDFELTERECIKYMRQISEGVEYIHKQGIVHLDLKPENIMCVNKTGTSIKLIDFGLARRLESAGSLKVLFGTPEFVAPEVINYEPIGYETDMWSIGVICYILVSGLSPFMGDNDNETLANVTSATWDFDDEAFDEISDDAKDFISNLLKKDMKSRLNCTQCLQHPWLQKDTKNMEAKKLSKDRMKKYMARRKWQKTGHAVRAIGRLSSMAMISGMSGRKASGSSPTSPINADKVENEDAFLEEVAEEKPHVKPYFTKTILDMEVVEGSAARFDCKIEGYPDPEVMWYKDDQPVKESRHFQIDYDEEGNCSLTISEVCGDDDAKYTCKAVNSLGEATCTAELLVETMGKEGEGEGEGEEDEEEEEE
In words: Measurement of the activity to inhibit Myosin light chain kinase (MLCK). The test is classed as biochemical. The settings on record: for Ki: ATP 20, 30, 50 and 100 μM, double reciprocal plotting, substrate MLC from chicken gizzard, read-out: MLCK inhibiting activity in terms of Ki value. Here is the method:
Each of compounds 1 to 10 was used as an inhibitor for MLCK. As a comparative compound, 1- 2-(6-benzothiazolesulfonylamino)ethyl!-4- 3-(phenoxy)propyl!piperazine dihydrochloride disclosed in International Patent Application Publication No. WO92/14712 was used. Measurement of an MLCK inhibiting activity of each of compounds 1 to 10 was conducted utilizing the reaction system of MLCK and an antibody specific for phosphorylated myosine light chain (MLCP). MLC was isolated from a chicken gizzard and purified by the method according to Perry et al. (Journal of Biochemistry, vol. 211, p.267-272, 1983), to thereby obtain 20 kDa of purified MLC. On the other hand, MLCK was isolated and purified by the method according to Walsh et al. (Methods in Enzymology, vol. 99, p.279-288, 1983). Calmodulin was isolated from a pig brain and purified by the method according to Yazawa (Journal of Biochemistry, vol. 87, p.1313-1320, 1980). Further, anti-MLCP antibody was prepared by using, as an antigen, a synthetic peptide which has an amino acid sequence of an MLCP amino acid fragment of 12 amino acid residues containing a serine residue (phosphorylation site of MLCP). […] The synthetic peptide was subjected to phosphorylation by MLCK in the presence of ATP, followed by purification by high performance liquid chromatography. The purified peptide was conjugated with key hole limpet hemocyanin (KLH). The conjugation efficiency thereof was 110-148 nmol peptide/mg KLH. 0.2 mg of the KLH-conjugated peptide was mixed with an adjuvant and injected to a rabbit. The injection was conducted four more times, to thereby immunize the […]. An anti-MLCP antibody was obtained from the […], and the antibody titer thereof was examined. With respect to the anti-MLCP antibody having a satisfactorily high antibody titer, an IgG fraction (anti-MLCP IgG) was obtained and purified. Measurement of the MLCK activity was conducted as follows. MLC was diluted with a phosphate buffer (PBS) to obtain a solution having a MLC concentration of 5 μg/ml. 100 μl of the solution was added to each well of 96-well immunoplate, and was allowed to stand overnight at 4° C., to thereby immobilize the MLC on the surface of each well. Each plate was washed with PBS to thereby remove the MLC which had not been immobilized. To each of the MLC-immobilized wells was added a solution containing 25 mM Tris buffer (pH 7.5), 3 mM magnesium chloride, 1 mM calcium chloride, 0.1% of 2-mercaptoethanol, 1 mg/ml bovine serum albumin, 20 μg/ml calmoduline, 0.1 μg/ml MLCK, and 20 μM of ATP, thereby initiating the reaction. Substantially the same reaction as mentioned above was repeated three more times, except that the ATP concentration was changed to 30, 50 and 100 μM. 3 Minutes after the initiation of each of the reactions, 100 μl of an aqueous 20% phosphoric acid solution was added to each well of the individual plates to terminate the reaction. Each well was washed three times with PBS containing 0.2% of Triton X-100 (TrPBS). As a primary antibody, 100 μl of anti-MLCP antibody which had been diluted 500-fold with PBS containing 0.05% Tween 20 (TwPBS) was added to each of the washed wells, and allowed to stand at room temperature for 1 hour. Each well was washed with TrPBS three times. Then, as a secondary antibody, 100 μl of peroxydase-labeled anti-rabit IgG antibody (manufactured and sold by Cappel Co., Ltd., Germany) which had been diluted 1000-fold with TwPBS was added to each well, and allowed to stand at room temperature for 1 hour. Each well was washed with TrPBS three times. To each well was added 100 μ l of a coloring agent containing 2 mg/ml orthophenylenediamine and an aqueous 0.04% hydrogen peroxide solution. When the coloring proceeded satisfactorily, 30 μl of 4.5M sulfuric acid was added to each well to terminate the reaction. The absorbance of the reaction mixture in each well was determined using a microplate reader (manufactured and sold by Bio-Rad laboratories, U.S.A.). […]

The target in test [3] is protein kinase C (PKC). The test is described as follows: Measurement of the activity to inhibit protein kinase C (PKC). The test is classed as biochemical, rat. The conditions noted are these: for Ki: ATP 1, 3, 5 and 10 μM, double reciprocal plotting, PKC from rat brain, read-out: PKC inhibiting activity in terms of Ki value. On the procedure: Each of compounds 1 to 10 was used as an inhibitor for PKC. As a comparative compound, 1- 2-(6-benzothiazolesulfonylamino)ethyl!-4- 3-(phenoxy)propyl!piperazine dihydrochloride disclosed in International Patent Application Publication No. W092/14712 was used. Measurement of a PKC inhibiting activity of each of compounds 1 to 10 was conducted utilizing a kit for measuring PKC inhibiting activity (manufactured and sold by Medical and Biological Laboratories, Japan). PKC was isolated from a rat brain and purified by the method according to Inagaki et al. (Journal of Biochemistry, vol. 260, p.2922-2925, 1985). On the surface of each well of the 96-well plate of the measuring kit, a peptide which is a substrate for PKC was immobilized. To each of the wells was added a solution containing 25 mM Tris buffer (pH 7.5), 3 mM magnesium chloride, 1 mM calcium chloride, 0.1% 2-mercaptoethanol, 1 mg/ml bovine serum albumin, 50 μg/ml phosphatidylserine, 10 μg/ml PKC and 1 μM of ATP, thereby initiating the reaction. Substantially the same reaction as mentioned above was repeated three more times, except that the ATP concentration was changed to 3, 5 and 10 μM. 3 Minutes after the initiation of each of the reactions, 100 μl of an aqueous 20% phosphoric acid solution was added to each well of the individual plates to terminate the reaction. Each well was washed with TrPBS three times. 100 μl of the primary antibody included in the kit, which had been diluted 10-fold with TwPBS, was added to each of the washed wells, and allowed to stand at room temperature for 1 hour. Each well was washed with TrPBS three times. Then, as a secondary antibody, 100 μl of peroxydase-labeled anti-mouse IgG antibody (manufactured and sold by Bio-Rad laboratories, U.S.A.) which had been diluted 1000-fold with TwPBS was added to each well, and allowed to stand at room temperature for 1 hour. Each well was washed with TrPBS three times. To each well was added 100 μl of a coloring agent containing 2 mg/ml orthophenylenediamine and an aqueous 0.04% hydrogen peroxide solution. When the coloring proceeded satisfactorily, 30 μl of 4.5M sulfuric acid was added to each well to terminate the reaction. The absorbance of the reaction mixture in each well was determined using a microplate reader (manufactured and sold by Bio-Rad laboratories, u.s.a.). In order to measure the PKC inhibiting activity of each of compounds 1 to 10 and the comparative compound, each of the compounds having an appropriate concentration was individually added to the above-mentioned respective solutions having ATP concentrations of 1, 3, 5 and 10 μM and, then, the PKC activity was individually measured in terms of the absorbance in substantially the same manner as mentioned above. The PKC inhibiting activity in terms of inhibition constant (Ki) was individually obtained by double reciprocal plotting of the respective PKC activities obtained in the presence of each of compounds 1 to 10 and the comparative compound, and the respective PKC activities obtained in the absence of compounds 1 to 10 and the comparative compound.

Test [4] relates to bronchial smooth muscle. The settings on record: disclosed in WO92/14712; cited from earlier work.

As a reminder, the Ki is the dissociation constant of the complex between target and ligand, obtained from inhibition or displacement. With `O=S(=O)(NCCNCc1cccc(Cl)c1)c1cccc2ncsc12` [Compound 8, N-2-(3-chlorobenzylamino)ethyl!-7-benzothiazolesulfonamide hydrochloride], in test [1], the Emax was found to be 85.7%. The Ki in test [2] stood at 55 µM; in test [3] it was 5 µM.

On to `O=S(=O)(c1ccc2ncsc2c1)N1CCNCC1` [Compound 6, 1-(6-benzothiazolesulfonyl)piperazine hydrochloride], for which the Emax in test [1] came out at 27.2%. Also, the Ki in test [2] was 25 µM; in test [3], 15 µM.

Take `O=S(=O)(NCCNCc1cccc(F)c1)c1cccc2ncsc12` [Compound 10, N-2-(3-fluorobenzylamino)ethyl!-7-benzothiazolesulfonamide hydrochloride]: the Emax in test [1] is 78%. Besides, the inhibition constant (Ki) was determined as 55 µM in test [2] and 7 µM in test [3].

For the molecule `O=S(=O)(NCCN1CCN(CCCOc2ccccc2)CC1)c1ccc2ncsc2c1` [Comparative compound, 1-2-(6-benzothiazolesulfonylamino)ethyl!-4-3-(phenoxy)propyl!piperazine dihydrochloride, reference compound], the Emax in test [1] amounted to 6.8%. Moreover, the “ability to relax a bronchial smooth muscle of a tracheal specimen (in words)” value in test [1] (KCl-induced contraction, conclusion from Table 2) is listed as “no ability to relax such a bronchial smooth muscle”. Besides, the Ki in test [2] and in test [3] was over 200 µM throughout. Also, in test [2] (conclusion from Table 1), the “activity to inhibit myosin light chain kinase (in words)” value is “no activity to inhibit the protein kinases”. For the same molecule, the “activity to inhibit protein kinase C (in words)” value in test [3] (conclusion from Table 1) is on record as “no activity to inhibit the protein kinases”.

On to `O=S(=O)(NCCN1CCN(CCCOc2ccccc2)CC1)c1ccc2ncsc2c1` [1-2-(6-benzothiazolesulfonylamino)ethyl!-4-3-(phenoxy)propyl!piperazine], for which the “ability to relax a bronchial smooth muscle by its antihistaminic activity” value in test [4] is reported as “has the ability to relax a bronchial smooth muscle by its antihistaminic activity”.

As to `O=S(=O)(c1cccc2ncsc12)N1CCNCC1` [Compound 2, 1-(7-benzothiazolesulfonyl)piperazine hydrochloride], in test [1], the Emax was 24%. The results for the Ki in test [2] and in test [3] were 50 µM and 5 µM, respectively.

Take `O=S(=O)(NCCNCc1ccc2c(c1)OCO2)c1cccc2ncsc12` [Compound 7, N-2-(3,4-methylenedioxybenzylamino)ethyl!-7-benzothiazolesulfonamide hydrochloride]: the Emax in test [1] was determined as 96.8%. The Ki is 50 µM in test [2] and 6 µM in test [3].

As for `O=S(=O)(c1cccc2ncsc12)N1CCCNCC1` [Compound 1, 1-(7-benzothiazolesulfonyl)homopiperazine hydrochloride], the Emax in test [1] was 30.5%. Moreover, the inhibitory constant (Ki) in test [2] worked out at 80 µM; in test [3], 7 µM.

Take `CC1CNCCN1S(=O)(=O)c1cccc2ncsc12` (stereo not shown) [Compound 3, 1-(7-benzothiazolesulfonyl)-2-methylpiperazine hydrochloride]: the Emax in test [1] was determined as 21.1%. For the same molecule, the results for the Ki in test [2] and in test [3] were 90 µM and 15 µM, respectively.

`CNCCNS(=O)(=O)c1cccc2ncsc12` [Compound 5, 1-(7-benzothiazolesulfonyl)-4-methylethylenediamine hydrochloride]: the Emax in test [1] is 22%. For the same molecule, the Ki in test [2] worked out at 120 µM; in test [3], 35 µM.

Consider `NCCNS(=O)(=O)c1cccc2ncsc12` [Compound 4, 1-(7-benzothiazolesulfonyl)ethylenediamine hydrochloride], for which, in test [1], the Emax came to 33%. In addition, the Ki in test [2] was found to be 75 µM; in test [3], 5 µM.

On to `CC(NCCNS(=O)(=O)c1cccc2ncsc12)c1cccc(Cl)c1` (stereo not shown) [Compound 9, N-{2-1-(3-chlorophenyl)ethyl!aminoethyl}-7-benzothiazolesulfonamide hydrochloride], for which the Emax in test [1] came out at 74.6%. The Ki came out at 90 µM in test [2] and 25 µM in test [3].

The values are drawn from US5504098A, “Benzothiazolesulfonamide derivative, method for preparing the same, and use thereof” (Asahi Kasei Kogyo Kabushiki Kaisha, priority 1993, dated 1996).
